Consider two compounds from publication PMC12175894 (Science Advances, 2025).

Numbering of substitutions follows the chain as printed. Read-outs that look alike come from different tables or passages of the source.

In assay [1] the target is T1, 5-HT1AR F112^3.28W + M92^2.60F (Homo sapiens, UniProt P08908, F112W/M92F).
T1 sequence (P08908 1-422 M92F/F112W): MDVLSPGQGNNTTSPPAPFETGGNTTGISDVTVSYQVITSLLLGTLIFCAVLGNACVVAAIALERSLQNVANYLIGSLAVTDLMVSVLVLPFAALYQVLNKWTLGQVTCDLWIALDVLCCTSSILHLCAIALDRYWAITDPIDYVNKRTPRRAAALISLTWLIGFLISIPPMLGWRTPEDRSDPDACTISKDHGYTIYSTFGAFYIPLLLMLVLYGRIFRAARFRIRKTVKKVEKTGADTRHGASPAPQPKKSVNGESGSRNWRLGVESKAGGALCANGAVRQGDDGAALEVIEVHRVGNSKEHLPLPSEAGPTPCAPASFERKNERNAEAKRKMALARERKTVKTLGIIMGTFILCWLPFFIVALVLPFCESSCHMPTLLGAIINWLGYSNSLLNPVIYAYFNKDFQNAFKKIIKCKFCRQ
Nature of the assay: GloSensor inhibition of cAMP accumulation in HEK293AΔGs. It counts as cell-based. As to conditions: for Emax: read-out: Emax [% ± SEM], inhibition of cAMP accumulation. (cAMP levels reflect the balance of adenylyl cyclase and phosphodiesterase activity.)

A further assay addresses T2, 5-HT1AR Y96^2.64A (Homo sapiens, UniProt P08908, Y96A).
T2 sequence (P08908 1-422 Y96A): T1 sequence (P08908 1-422 M92F/F112W) with F92M, Y96A, W112F
In words: GloSensor cAMP accumulation in HEK293AΔGi/o. The class given is cell-based. As to conditions: read-out: Emax [% ± SEM], cAMP accumulation.

In another assay the target is T3, 5-HT1AR F112^3.28W (Homo sapiens, UniProt P08908, F112W).
T3 sequence (P08908 1-422 F112W): T1 sequence (P08908 1-422 M92F/F112W) with F92M
Nature of the assay: Radioligand competition, displacement of [3H]WAY100635. It counts as binding. (In a radioligand displacement assay an active substance lowers the binding of a labelled ligand.)

In a further assay the target is T4, 5-HT2AR (Homo sapiens, UniProt P28223).
T4 construct: whole cells for IP-One
In words: Radioligand competition, displacement of [3H]ketanserin. It counts as binding.

The target in assay [2] is T5, 5-HT1AR wildtype (Homo sapiens, UniProt P08908).
T5 construct: host or cells: HEK293T, HEK293A, HEK293AΔGs, HEK293AΔGi/o, HEK293AΔARRB1/B2
T5 sequence (P08908 1-422): T1 sequence (P08908 1-422 M92F/F112W) with F92M, W112F
In words: GloSensor cAMP assay in HEK293A cells. It counts as cell-based.

Assay [3] deals with male C56BL/6 mice. Nature of the assay: CFA-induced inflammatory pain model. It counts as in vivo, mouse.
Assay [4] addresses T5, 5-HT1AR wildtype. In words: GloSensor inhibition of cAMP accumulation in HEK293AΔGs. The class given is cell-based.
Another assay has as its system 5-HT1AR KO mice. In words: 52°C hot plate in 5-HT1AR KO mice. It counts as in vivo, mouse.
Assay [5] concerns male C56BL/6 mice. Nature of the assay: von Frey assay, hind paw mechanical thresholds. The class given is in vivo, mouse. As to conditions: 10 mg/kg i.p., 30 min after injection.
The target of another assay is T6, 5-HT1AR + GαoA (Homo sapiens, UniProt P08908).
T6 construct: host or cells: HEK293AΔGi/o
Nature of the assay: GloSensor cAMP in HEK293AΔGi/o co-transfected with GαoA. The class given is cell-based.

In a further assay the target is T7, 5-HT6R (Homo sapiens, UniProt P50406).
T7 construct: host or cells: HEK293T, transient; membranes
Nature of the assay: Radioligand competition, displacement of [3H]LSD. The class given is binding.

In assay [6] the target is T1, 5-HT1AR F112^3.28W + M92^2.60F. Nature of the assay: β-arrestin 2 recruitment, enhanced bystander BRET in HEK293T with GRK2. It counts as cell-based. As to conditions: HEK-293T; read-out: Emax [% ± SEM], β-arrestin 2 recruitment.
In assay [7] the test system is male C56BL/6 mice. In words: SNI model of neuropathic pain. The class given is in vivo, mouse.

T6 sequence (P08908 whole entry): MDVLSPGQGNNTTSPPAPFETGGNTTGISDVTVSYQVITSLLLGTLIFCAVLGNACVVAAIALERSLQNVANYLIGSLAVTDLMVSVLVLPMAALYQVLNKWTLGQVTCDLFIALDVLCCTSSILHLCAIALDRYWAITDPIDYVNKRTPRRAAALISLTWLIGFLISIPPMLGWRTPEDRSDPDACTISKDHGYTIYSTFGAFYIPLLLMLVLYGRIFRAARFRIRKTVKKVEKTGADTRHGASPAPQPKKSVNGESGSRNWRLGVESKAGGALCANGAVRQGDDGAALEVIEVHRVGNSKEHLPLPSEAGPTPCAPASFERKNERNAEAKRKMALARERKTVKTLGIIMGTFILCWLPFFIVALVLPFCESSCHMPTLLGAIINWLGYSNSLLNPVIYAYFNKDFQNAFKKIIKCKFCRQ
T6 sequence (P09471 2-354 partner limits assumed): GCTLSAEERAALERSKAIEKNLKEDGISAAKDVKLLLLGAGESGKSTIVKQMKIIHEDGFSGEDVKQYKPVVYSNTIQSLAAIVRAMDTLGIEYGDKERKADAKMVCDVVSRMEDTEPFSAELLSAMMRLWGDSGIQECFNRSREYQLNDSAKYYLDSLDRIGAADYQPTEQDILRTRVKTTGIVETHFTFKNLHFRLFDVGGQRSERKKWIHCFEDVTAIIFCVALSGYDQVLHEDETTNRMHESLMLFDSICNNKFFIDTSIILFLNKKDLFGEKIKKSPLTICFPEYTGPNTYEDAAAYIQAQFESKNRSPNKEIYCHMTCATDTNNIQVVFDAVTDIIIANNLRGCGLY
T4 sequence (P28223 whole entry): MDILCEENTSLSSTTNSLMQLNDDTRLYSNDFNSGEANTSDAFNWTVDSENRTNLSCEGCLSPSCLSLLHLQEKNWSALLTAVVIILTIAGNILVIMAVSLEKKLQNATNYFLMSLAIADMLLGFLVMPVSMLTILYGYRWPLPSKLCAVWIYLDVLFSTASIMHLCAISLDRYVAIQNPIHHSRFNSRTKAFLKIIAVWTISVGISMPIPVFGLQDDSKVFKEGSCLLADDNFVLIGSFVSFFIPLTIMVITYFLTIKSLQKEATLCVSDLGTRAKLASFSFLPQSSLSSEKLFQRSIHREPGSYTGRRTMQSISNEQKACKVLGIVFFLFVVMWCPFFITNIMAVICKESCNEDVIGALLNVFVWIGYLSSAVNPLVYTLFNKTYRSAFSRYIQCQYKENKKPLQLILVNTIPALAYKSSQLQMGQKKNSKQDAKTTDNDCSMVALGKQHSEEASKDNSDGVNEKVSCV
T7 sequence (P50406 whole entry): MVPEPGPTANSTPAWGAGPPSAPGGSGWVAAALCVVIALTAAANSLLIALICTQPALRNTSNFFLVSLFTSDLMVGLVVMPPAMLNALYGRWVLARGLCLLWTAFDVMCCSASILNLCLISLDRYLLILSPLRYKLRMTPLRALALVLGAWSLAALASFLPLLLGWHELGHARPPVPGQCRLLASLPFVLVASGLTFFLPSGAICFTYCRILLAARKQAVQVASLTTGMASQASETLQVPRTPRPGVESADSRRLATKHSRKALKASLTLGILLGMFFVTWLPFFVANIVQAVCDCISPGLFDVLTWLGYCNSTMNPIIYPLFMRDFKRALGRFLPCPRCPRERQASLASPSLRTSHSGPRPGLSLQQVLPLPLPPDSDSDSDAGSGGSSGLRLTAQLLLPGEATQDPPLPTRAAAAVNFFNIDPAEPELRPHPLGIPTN

In general, EC50 refers to the midpoint of the concentration-response curve. One may read the Emax as the maximal effect, on the per cent scale that the assay sets. With `COc1ccccc1OCCNCCCOc1ccc2c(c1)NC(=O)CO2` [ST171], the EC50 in [1] (HEK293AΔGs, F112W + M92F, read-out: EC50 [nM ± SEM], inhibition of cAMP accumulation) worked out at 1.8 ± 0.6 nM; at 5-HT1AR wildtype [2] (HEK293A, GloSensor, wildtype; read-out: EC50 left [nM±SEM], inhibition of cAMP accumulation) it was 3.4 ± 0.8 nM; at 5-HT1AR wildtype [4] (HEK293AΔGs, wildtype, read-out: EC50 [nM ± SEM], inhibition of cAMP accumulation), 5.3 ± 0.8 nM; at 5-HT1AR + GαoA (HEK293AΔGi/o + GαoA, read-out: EC50 [nM ± SEM], inhibition of cAMP accumulation), 4.1 ± 1 nM. Moreover, the Emax in assay [1] was 85 ± 11%; at 5-HT1AR Y96^2.64A it was below 5%; at 5-HT1AR wildtype [2] (HEK293-A, read-out: Emax [%±SEM], inhibition of cAMP accumulation), 86 ± 5%; at 5-HT1AR wildtype [4] (read-out: Emax [% ± SEM], inhibition of cAMP accumulation, HEK293AΔGs, wildtype, relative to serotonin) it was 73%; on 5-HT1AR + GαoA it was 100%; in assay [6], below 5%. Besides, the Ki is 0.16 nM at 5-HT1AR F112^3.28W (5-HT1AR F112W, HEK 293T membranes, read-out: Ki [nM ± SEM]); 260 nM on 5-HT2AR (5-HT2A, read-out: pKi (converted)); 280 ± 30 nM on 5-HT2AR (5-HT2AR, HEK 293T membranes, read-out: Ki [nM ± SEM]); 3080 nM on 5-HT6R (5-HT6, read-out: pKi (converted)); 3300 ± 300 nM on 5-HT6R (5-HT6R, HEK 293T membranes, read-out: Ki [nM ± SEM]). Moreover, in the assay on male C56BL/6 mice [3] (10 mg/kg intraperitoneal), the “mechanical thresholds of the injured hind paw, CFA model” value was “significantly increased the mechanical thresholds”. Moreover, the “Emax [% ± SEM], inhibition of cAMP accumulation” value at 5-HT1AR wildtype [4] (HEK293AΔGs, wildtype, relative to serotonin) is on record as 74 ± 3%. Further, in the assay with 5-HT1AR KO mice (10 mg/kg), the “response latency, hot plate in 5-HT1AR KO mice” value is listed as “no significant antinociceptive effect”. In addition, the “mechanical thresholds, von Frey” value in the assay on male C56BL/6 mice [5] is listed as “significantly increasing mechanical thresholds”. In addition, the “mechanical thresholds of the injured hind paw, SNI model” value in the assay on male C56BL/6 mice [7] (10 mg/kg intraperitoneal) is “significantly increased the mechanical thresholds”.

Turning to `Cc1ccc(CNCC2(F)CCN(C(=O)c3ccc(F)c(Cl)c3)CC2)nc1` [befiradol, reference compound], the Emax was 99 ± 7% in [1]; 69 ± 5% at 5-HT1AR Y96^2.64A; 93 ± 2% at 5-HT1AR wildtype [2] (HEK293-A; read-out: Emax [%±SEM], inhibition of cAMP accumulation); 87 ± 3% on 5-HT1AR wildtype [4] (read-out: Emax [% ± SEM], inhibition of cAMP accumulation); 107 ± 3% on 5-HT1AR + GαoA; 83 ± 4% in assay [6]. For the same compound, the “decrease in the binding affinity upon mutation of F112^3.28 to tryptophan” value at 5-HT1AR F112^3.28W (F112W vs WT) is listed as 16 fold. The Ki at 5-HT2AR was 15000 nM; on 5-HT6R it was above 50000 nM. The “Esat [%±SEM]” value at 5-HT1AR wildtype [2] (HEK293A, GloSensor, wildtype) amounted to 75 ± 3%. In the assay on male C56BL/6 mice [3] (nonsedating dose 1 mg/kg), the “mechanical sensitivity, CFA model” value was “reduced the mechanical sensitivity”. Moreover, the “response latency, hot plate in 5-HT1AR KO mice” value in the assay with 5-HT1AR KO mice (1.0 mg/kg) is recorded as “no significant antinociceptive effect”. Moreover, the “mechanical thresholds, von Frey” value with male C56BL/6 mice [5] was “significantly increasing mechanical thresholds”. In addition, in the assay with male C56BL/6 mice [7] (lower, nonsedating doses (1 mg/kg)), the “mechanical allodynia, neuropathic pain model” value was “did not reverse the mechanical allodynia”.
